Where a SMILES comes first, the peptide text is derived from it.
Legend:
[1] = target: gingipain-1 (Porphyromonas gingivalis, UniProt P28784); assay: biochemical; type: biochemical; conditions: for Activity +Gly-Gly: 0.1 mM compound, 50 mM Gly-Gly; for activity at 100 µM / activity at 1000 µM / activity at 10000 µM: pH 7.5, read-out: Activity -Gly-Gly; for stimulation of amidolytic activity: thiol / reducing compounds
[2] = tested on: gingipain-1; assay: biochemical; type: biochemical, Porphyromonas gingivalis; conditions: Sephadex G-150 peak fractions
[3] = tested on: guinea pig skin; type: in vivo; conditions: 10^-5 M

Chain of gingipain-1 (Porphyromonas gingivalis, UniProt P28784) (P28784 228-719): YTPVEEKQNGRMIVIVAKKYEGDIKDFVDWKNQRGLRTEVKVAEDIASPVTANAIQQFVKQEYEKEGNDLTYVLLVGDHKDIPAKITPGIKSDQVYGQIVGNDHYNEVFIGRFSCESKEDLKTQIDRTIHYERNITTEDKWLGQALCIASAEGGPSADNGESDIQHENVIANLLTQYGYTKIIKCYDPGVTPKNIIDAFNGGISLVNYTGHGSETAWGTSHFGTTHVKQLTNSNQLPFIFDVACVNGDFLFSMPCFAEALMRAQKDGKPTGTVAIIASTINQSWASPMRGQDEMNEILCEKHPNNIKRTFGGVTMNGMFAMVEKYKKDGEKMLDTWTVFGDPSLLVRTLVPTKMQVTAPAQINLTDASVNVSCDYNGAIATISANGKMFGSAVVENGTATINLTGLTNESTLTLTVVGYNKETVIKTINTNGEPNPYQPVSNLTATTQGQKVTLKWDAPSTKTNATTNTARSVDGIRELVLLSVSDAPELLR

Row | Molecule | Activity +Gly-Gly [1] [%] | activity at 100 µM [1] [%] | activity at 1000 µM [1] [%] | activity at 10000 µM [1] [%] | other results
1 | O[C@H](CS)[C@H](O)CS (racemic) [Dithiothreitol] | 636 | 159 | 432 | 685 | 
2 | NCC(N)=O [glycine amide] |  |  |  |  | enhancement of Bz-L-Arg-pNA hydrolytic activity [2]: enhanced many-fold
3 | NCC(=O)O [glycine] |  |  |  |  | effect of glycine and glycine analogues on kcat/Km ([1]; preliminary kinetic data, kcat and Km both raised equally): kcat /Km ratio does not change
4 | NCC(=O)NCC(=O)O [Gly-Gly, glycyl-glycine] (H-Gly-Gly-OH) |  |  |  |  | enhancement of Bz-L-Arg-pNA hydrolytic activity [2]: enhanced many-fold
5 | NCCS [cysteamine] |  |  |  |  | stimulation of amidolytic activity [1]: most efficient
6 | N[C@@H](CCC(=O)N[C@@H](CS)C(=O)NCC(=O)O)C(=O)O [Glutathione] | 853 | 208 | 593 | 770 | 
7 | N[C@@H](CS)C(=O)O [Cysteine] |  | 685 |  |  | stimulation of amidolytic activity [1]: most efficient
8 | OCCS [Mercaptoethanol] | 627 | 165 | 456 | 685 | 
9 | soybean trypsin inhibitor: soybean trypsin inhibitor (SBTI) (protein, UniProt P01070 25-205, looked up) Trypsin inhibitor A: DFVLDNEGNPLENGGTYYILSDITAFGGIRAAPTGNERCPLTVVQSRNELDKGIGTIISSPYRIRFIAEGHPLSLKFDSFAVIMLCVGIPTEWSVVEDLPEGPAVKIGENKDAMDGWFRLERVSDDEFNNYKLVFCPQQAEDDKCGDIGISIDHDDGTRRLVVSKNKPLVVQFQKLDKESL |  |  |  |  | inhibition of vascular permeability enhancement [3]: inhibited
